Results: PubChem BioAssay AID248 (DTP/NCI, 2004)
Several values for one entry are separate records, joined by “and”; a condition that tells them apart may be missing. Equal entries are not always repeated. Toxic doses and inconclusive results are not listed.

System: L1210 leukemia ip in BDF1 mice, survival T/C
Assay: NCI In Vivo Anticancer Drug Screen. Data for tumor model L1210 Leukemia (intraperitoneal) in B6D2F1 (BDF1) mice
Conditions: endpoint: mean survival time, higher = longer survival
Summary of the method: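 Mice bearing the transplanted tumor received compound or vehicle. Survival of the treated group was divided by that of the vehicle-treated control group to give the ratio.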

COC(C(=O)C(O)C(C)O)C1Cc2cc3cc(OC4CC(OC(C)=O)C(OC5CC(O)C(OC)C(C)O5)C(C)O4)cc(O)c3c(O)c2C(=O)C1OC1CC(OC2CC(OC3CC(C)(O)C(OC(=O)C(C)C)C(C)O3)C(O)C(C)O2)C(O)C(C)O1 (stereo not drawn)
T/C (dose: 0.09 mg/kg/injection, schedule: Q01DX017 (ip), vehicle: carboxymethylcellulose (CMC)): 97 % of control | T/C (dose: 0.18 mg/kg/injection, schedule: Q01DX017 (ip), vehicle: carboxymethylcellulose (CMC)): 109 % of control | T/C (dose: 0.18 mg/kg/injection, schedule: Q## X005 (ip), vehicle: carboxymethylcellulose (CMC)): 98 % of control | T/C (dose: 0.2 mg/kg/injection, schedule: Q01DX015 (ip), vehicle: carboxymethylcellulose (CMC)): 102 % of control | T/C (dose: 0.24 mg/kg/injection, schedule: Q## X024 (ip), vehicle: carboxymethylcellulose (CMC)): 92 % of control | T/C (dose: 0.25 mg/kg/injection, schedule: Q01DX009 (ip), vehicle: other): 103 % of control | T/C (dose: 0.25 mg/kg/injection, schedule: Q## X003 (ip), vehicle: carboxymethylcellulose (CMC)): 94 % of control | T/C (dose: 0.25 mg/kg/injection, schedule: Q#A X034 (ip), vehicle: carboxymethylcellulose (CMC)): 119 % of control | T/C (dose: 0.37 mg/kg/injection, schedule: Q01DX001 (ip), vehicle: carboxymethylcellulose (CMC)): 101 % of control | T/C (dose: 0.37 mg/kg/injection, schedule: Q01DX010 (ip), vehicle: saline): 116 % of control | T/C (dose: 0.37 mg/kg/injection, schedule: Q02DX005 (ip), vehicle: saline): 101 % of control | T/C (dose: 0.37 mg/kg/injection, schedule: Q02DX009 (ip), vehicle: carboxymethylcellulose (CMC)): 121 % of control | T/C (dose: 0.37 mg/kg/injection, schedule: Q## X003 (ip), vehicle: saline): 98 % of control | T/C (dose: 0.37 mg/kg/injection, schedule: Q## X005 (ip), vehicle: carboxymethylcellulose (CMC)): 107 % of control | T/C (dose: 0.4 mg/kg/injection, schedule: Q01DX015 (ip), vehicle: carboxymethylcellulose (CMC)): 120 % of control | T/C (dose: 0.48 mg/kg/injection, schedule: Q## X024 (ip), vehicle: carboxymethylcellulose (CMC)): 89 % of control | T/C (dose: 0.5 mg/kg/injection, schedule: Q01DX001 (ip), vehicle: saline): 103 % of control | T/C (dose: 0.5 mg/kg/injection, schedule: Q01DX005 (ip), vehicle: carboxymethylcellulose (CMC)): 106 % of control | T/C (dose: 0.5 mg/kg/injection, schedule: Q01DX006 (iv), vehicle: carboxymethylcellulose (CMC)): 104 % of control | T/C (dose: 0.5 mg/kg/injection, schedule: Q01DX009 (ip), vehicle: carboxymethylcellulose (CMC)): 113 % of control | T/C (dose: 0.5 mg/kg/injection, schedule: Q01DX009 (ip), vehicle: other): 122 % of control | T/C (dose: 0.5 mg/kg/injection, schedule: Q01DX015 (im), vehicle: carboxymethylcellulose (CMC)): 97 % of control | T/C (dose: 0.5 mg/kg/injection, schedule: Q01DX015 (sc), vehicle: carboxymethylcellulose (CMC)): 95 % of control | T/C (dose: 0.5 mg/kg/injection, schedule: Q01DX Z (ip), vehicle: saline): 123 % of control | T/C (dose: 0.5 mg/kg/injection, schedule: Q## X003 (ip), vehicle: carboxymethylcellulose (CMC)): 93 % of control | T/C (dose: 0.75 mg/kg/injection, schedule: Q01DX001 (ip), vehicle: carboxymethylcellulose (CMC)): 106 % of control | T/C (dose: 0.75 mg/kg/injection, schedule: Q02DX005 (ip), vehicle: saline): 116 % of control | T/C (dose: 0.75 mg/kg/injection, schedule: Q## X003 (ip), vehicle: saline): 105 % of control | T/C (dose: 0.75 mg/kg/injection, schedule: Q## X005 (ip), vehicle: carboxymethylcellulose (CMC)): 117 % of control | T/C (dose: 1.0 mg/kg/injection, schedule: Q01DX001 (ip), vehicle: other): 94 % of control | T/C (dose: 1.0 mg/kg/injection, schedule: Q01DX001 (ip), vehicle: saline): 114 % of control and 115 % of control | T/C (dose: 1.0 mg/kg/injection, schedule: Q01DX005 (ip), vehicle: carboxymethylcellulose (CMC)): 110 % of control | T/C (dose: 1.0 mg/kg/injection, schedule: Q01DX006 (iv), vehicle: carboxymethylcellulose (CMC)): 96 % of control | T/C (dose: 1.0 mg/kg/injection, schedule: Q01DX009 (ip), vehicle: carboxymethylcellulose (CMC)): 116 % of control | T/C (dose: 1.0 mg/kg/injection, schedule: Q01DX009 (ip), vehicle: other): 114 % of control | T/C (dose: 1.0 mg/kg/injection, schedule: Q01DX015 (im), vehicle: carboxymethylcellulose (CMC)): 101 % of control | T/C (dose: 1.0 mg/kg/injection, schedule: Q01DX015 (sc), vehicle: carboxymethylcellulose (CMC)): 105 % of control | T/C (dose: 1.0 mg/kg/injection, schedule: Q01DX017 (ip), vehicle: carboxymethylcellulose (CMC)): 163 % of control | T/C (dose: 1.0 mg/kg/injection, schedule: Q01DX Z (ip), vehicle: saline): 115 % of control | T/C (dose: 1.0 mg/kg/injection, schedule: Q02DX009 (ip), vehicle: carboxymethylcellulose (CMC)): 154 % of control | T/C (dose: 1.0 mg/kg/injection, schedule: Q## X002 (ip), vehicle: carboxymethylcellulose (CMC)): 88 % of control | T/C (dose: 1.0 mg/kg/injection, schedule: Q## X003 (ip), vehicle: carboxymethylcellulose (CMC)): 95 % of control | T/C (dose: 1.0 mg/kg/injection, schedule: Q## X008 (ip), vehicle: carboxymethylcellulose (CMC)): 88 % of control | T/C (dose: 1.0 mg/kg/injection, schedule: Q## X024 (ip), vehicle: carboxymethylcellulose (CMC)): 93 % of control | T/C (dose: 1.0 mg/kg/injection, schedule: Q#A X034 (ip), vehicle: carboxymethylcellulose (CMC)): 170 % of control | T/C (dose: 1.5 mg/kg/injection, schedule: Q01DX001 (ip), vehicle: carboxymethylcellulose (CMC)): 117 % of control | T/C (dose: 1.5 mg/kg/injection, schedule: Q01DX001 (ip), vehicle: saline): 114 % of control | T/C (dose: 1.5 mg/kg/injection, schedule: Q01DX013 (ip), vehicle: saline): 124 % of control | T/C (dose: 1.5 mg/kg/injection, schedule: Q02DX005 (ip), vehicle: saline): 122 % of control | T/C (dose: 1.5 mg/kg/injection, schedule: Q02DX009 (ip), vehicle: carboxymethylcellulose (CMC)): 162 % of control | T/C (dose: 1.6 mg/kg/injection, schedule: Q01DX013 (ip), vehicle: saline): 163 % of control | T/C (dose: 2.0 mg/kg/injection, schedule: Q01DX001 (ip), vehicle: other): 108 % of control | T/C (dose: 2.0 mg/kg/injection, schedule: Q01DX001 (ip), vehicle: saline): 116 % of control and 123 % of control | T/C (dose: 2.0 mg/kg/injection, schedule: Q01DX005 (ip), vehicle: carboxymethylcellulose (CMC)): 123 % of control | T/C (dose: 2.0 mg/kg/injection, schedule: Q01DX006 (iv), vehicle: carboxymethylcellulose (CMC)): 121 % of control | T/C (dose: 2.0 mg/kg/injection, schedule: Q01DX009 (ip), vehicle: other): 177 % of control | T/C (dose: 2.0 mg/kg/injection, schedule: Q01DX009 (ip), vehicle: saline): 166 % of control | T/C (dose: 2.0 mg/kg/injection, schedule: Q01DX015 (im), vehicle: carboxymethylcellulose (CMC)): 121 % of control | T/C (dose: 2.0 mg/kg/injection, schedule: Q01DX015 (ip), vehicle: carboxymethylcellulose (CMC)): 195 % of control | T/C (dose: 2.0 mg/kg/injection, schedule: Q01DX015 (oral), vehicle: carboxymethylcellulose (CMC)): 101 % of control | T/C (dose: 2.0 mg/kg/injection, schedule: Q01DX015 (sc), vehicle: carboxymethylcellulose (CMC)): 114 % of control | T/C (dose: 2.0 mg/kg/injection, schedule: Q01DX017 (ip), vehicle: carboxymethylcellulose (CMC)): 184 % of control | T/C (dose: 2.0 mg/kg/injection, schedule: Q01DX Z (ip), vehicle: saline): 106 % of control | T/C (dose: 2.0 mg/kg/injection, schedule: Q02DX009 (ip), vehicle: carboxymethylcellulose (CMC)): 192 % of control | T/C (dose: 2.0 mg/kg/injection, schedule: Q## X002 (ip), vehicle: carboxymethylcellulose (CMC)): 100 % of control | T/C (dose: 2.0 mg/kg/injection, schedule: Q## X003 (ip), vehicle: carboxymethylcellulose (CMC)): 113 % of control | T/C (dose: 2.0 mg/kg/injection, schedule: Q## X005 (ip), vehicle: carboxymethylcellulose (CMC)): 150 % of control | T/C (dose: 2.0 mg/kg/injection, schedule: Q## X008 (ip), vehicle: carboxymethylcellulose (CMC)): 97 % of control | T/C (dose: 2.0 mg/kg/injection, schedule: Q## X016 (ip), vehicle: carboxymethylcellulose (CMC)): 97 % of control | T/C (dose: 2.0 mg/kg/injection, schedule: Q## X024 (ip), vehicle: carboxymethylcellulose (CMC)): 103 % of control | T/C (dose: 3.0 mg/kg/injection, schedule: Q01DX001 (ip), vehicle: carboxymethylcellulose (CMC)): 115 % of control | T/C (dose: 3.0 mg/kg/injection, schedule: Q01DX001 (ip), vehicle: saline): 118 % of control | T/C (dose: 3.0 mg/kg/injection, schedule: Q02DX009 (ip), vehicle: carboxymethylcellulose (CMC)): 151 % of control | T/C (dose: 3.0 mg/kg/injection, schedule: Q## X005 (ip), vehicle: carboxymethylcellulose (CMC)): 152 % of control | T/C (dose: 3.2 mg/kg/injection, schedule: Q01DX015 (ip), vehicle: carboxymethylcellulose (CMC)): 163 % of control | T/C (dose: 4.0 mg/kg/injection, schedule: Q01DX001 (ip), vehicle: other): 97 % of control | T/C (dose: 4.0 mg/kg/injection, schedule: Q01DX001 (ip), vehicle: saline): 104 % of control | T/C (dose: 4.0 mg/kg/injection, schedule: Q01DX006 (iv), vehicle: carboxymethylcellulose (CMC)): 122 % of control | T/C (dose: 4.0 mg/kg/injection, schedule: Q01DX009 (ip), vehicle: carboxymethylcellulose (CMC)): 114 % of control | T/C (dose: 4.0 mg/kg/injection, schedule: Q01DX009 (ip), vehicle: other): 101 % of control | T/C (dose: 4.0 mg/kg/injection, schedule: Q01DX015 (im), vehicle: carboxymethylcellulose (CMC)): 94 % of control | T/C (dose: 4.0 mg/kg/injection, schedule: Q01DX015 (oral), vehicle: carboxymethylcellulose (CMC)): 104 % of control | T/C (dose: 4.0 mg/kg/injection, schedule: Q01DX015 (sc), vehicle: carboxymethylcellulose (CMC)): 115 % of control | T/C (dose: 4.0 mg/kg/injection, schedule: Q02DX009 (ip), vehicle: carboxymethylcellulose (CMC)): 259 % of control | T/C (dose: 4.0 mg/kg/injection, schedule: Q## X002 (ip), vehicle: carboxymethylcellulose (CMC)): 106 % of control | T/C (dose: 4.0 mg/kg/injection, schedule: Q## X005 (ip), vehicle: carboxymethylcellulose (CMC)): 170 % of control | T/C (dose: 4.0 mg/kg/injection, schedule: Q## X008 (ip), vehicle: carboxymethylcellulose (CMC)): 104 % of control | T/C (dose: 4.0 mg/kg/injection, schedule: Q## X016 (ip), vehicle: carboxymethylcellulose (CMC)): 97 % of control | T/C (dose: 6.0 mg/kg/injection, schedule: Q02DX009 (ip), vehicle: carboxymethylcellulose (CMC)): 113 % of control | T/C (dose: 8.0 mg/kg/injection, schedule: Q01DX001 (ip), vehicle: carboxymethylcellulose (CMC)): 98 % of control | T/C (dose: 8.0 mg/kg/injection, schedule: Q01DX001 (ip), vehicle: other): 101 % of control | T/C (dose: 8.0 mg/kg/injection, schedule: Q01DX015 (oral), vehicle: carboxymethylcellulose (CMC)): 97 % of control | T/C (dose: 8.0 mg/kg/injection, schedule: Q## X002 (ip), vehicle: carboxymethylcellulose (CMC)): 116 % of control | T/C (dose: 16.0 mg/kg/injection, schedule: Q01DX015 (oral), vehicle: carboxymethylcellulose (CMC)): 101 % of control | T/C (dose: 32.0 mg/kg/injection, schedule: Q01DX015 (oral), vehicle: carboxymethylcellulose (CMC)): 109 % of control | T/C (dose: 62.5 micrograms/kg/injection, schedule: Q01DX Z (ip), vehicle: saline): 108 % of control | T/C (dose: 125.0 micrograms/kg/injection, schedule: Q01DX Z (ip), vehicle: saline): 109 % of control | T/C (dose: 250.0 micrograms/kg/injection, schedule: Q01DX Z (ip), vehicle: saline): 114 % of control
